The values below are quoted from earlier work in patent US7037523B2, “Controlled release compositions for macrolide antimicrobial agents” (Wockhardt Limited, priority 2001, dated 2006).

The conditions of data set [1]: normal gastric pH of 1.0–2.0.

SMILES strings stand for the structures.

As for `CC[C@H]1OC(=O)[C@H](C)[C@@H](O[C@H]2C[C@@](C)(OC)[C@@H](O)[C@H](C)O2)[C@H](C)[C@@H](O[C@@H]2O[C@H](C)C[C@H](N(C)C)[C@H]2O)[C@](C)(OC)C[C@@H](C)C(=O)[C@H](C)[C@@H](O)[C@]1(C)O` [Clarithromycin], the solubility in water result is “practically insoluble”. In addition, in data set [1], the “degradation in acidic medium” value is listed as “degrades rapidly”.
